Patent US11008337B2, “Chiral diaryl macrocycles as modulators of protein kinases” (Turning Point Therapeutics, Inc., priority 2015, dated 2021)

Experiments:
Format in all cases: cell-based
CD74-ROS1 Ba/F3 = target: T1, CD74-ROS1 Ba/F3 (Homo sapiens, UniProt P08922); assay: Cell proliferation assay, CD74-ROS1 Ba/F3 stable cell line (CellTiter-Glo); conditions: Ba/F3-CD74-ROS1 wild type cells, 72 hours compound incubation; read-out: Cell Proliferation IC50 CD74-ROS1 Ba/F3
T1 construct: fused on or other part: P04233 (HLA class II histocompatibility antigen gamma chain)
T1 sequence (P08922 whole entry, change not shown, the tested form may be a part): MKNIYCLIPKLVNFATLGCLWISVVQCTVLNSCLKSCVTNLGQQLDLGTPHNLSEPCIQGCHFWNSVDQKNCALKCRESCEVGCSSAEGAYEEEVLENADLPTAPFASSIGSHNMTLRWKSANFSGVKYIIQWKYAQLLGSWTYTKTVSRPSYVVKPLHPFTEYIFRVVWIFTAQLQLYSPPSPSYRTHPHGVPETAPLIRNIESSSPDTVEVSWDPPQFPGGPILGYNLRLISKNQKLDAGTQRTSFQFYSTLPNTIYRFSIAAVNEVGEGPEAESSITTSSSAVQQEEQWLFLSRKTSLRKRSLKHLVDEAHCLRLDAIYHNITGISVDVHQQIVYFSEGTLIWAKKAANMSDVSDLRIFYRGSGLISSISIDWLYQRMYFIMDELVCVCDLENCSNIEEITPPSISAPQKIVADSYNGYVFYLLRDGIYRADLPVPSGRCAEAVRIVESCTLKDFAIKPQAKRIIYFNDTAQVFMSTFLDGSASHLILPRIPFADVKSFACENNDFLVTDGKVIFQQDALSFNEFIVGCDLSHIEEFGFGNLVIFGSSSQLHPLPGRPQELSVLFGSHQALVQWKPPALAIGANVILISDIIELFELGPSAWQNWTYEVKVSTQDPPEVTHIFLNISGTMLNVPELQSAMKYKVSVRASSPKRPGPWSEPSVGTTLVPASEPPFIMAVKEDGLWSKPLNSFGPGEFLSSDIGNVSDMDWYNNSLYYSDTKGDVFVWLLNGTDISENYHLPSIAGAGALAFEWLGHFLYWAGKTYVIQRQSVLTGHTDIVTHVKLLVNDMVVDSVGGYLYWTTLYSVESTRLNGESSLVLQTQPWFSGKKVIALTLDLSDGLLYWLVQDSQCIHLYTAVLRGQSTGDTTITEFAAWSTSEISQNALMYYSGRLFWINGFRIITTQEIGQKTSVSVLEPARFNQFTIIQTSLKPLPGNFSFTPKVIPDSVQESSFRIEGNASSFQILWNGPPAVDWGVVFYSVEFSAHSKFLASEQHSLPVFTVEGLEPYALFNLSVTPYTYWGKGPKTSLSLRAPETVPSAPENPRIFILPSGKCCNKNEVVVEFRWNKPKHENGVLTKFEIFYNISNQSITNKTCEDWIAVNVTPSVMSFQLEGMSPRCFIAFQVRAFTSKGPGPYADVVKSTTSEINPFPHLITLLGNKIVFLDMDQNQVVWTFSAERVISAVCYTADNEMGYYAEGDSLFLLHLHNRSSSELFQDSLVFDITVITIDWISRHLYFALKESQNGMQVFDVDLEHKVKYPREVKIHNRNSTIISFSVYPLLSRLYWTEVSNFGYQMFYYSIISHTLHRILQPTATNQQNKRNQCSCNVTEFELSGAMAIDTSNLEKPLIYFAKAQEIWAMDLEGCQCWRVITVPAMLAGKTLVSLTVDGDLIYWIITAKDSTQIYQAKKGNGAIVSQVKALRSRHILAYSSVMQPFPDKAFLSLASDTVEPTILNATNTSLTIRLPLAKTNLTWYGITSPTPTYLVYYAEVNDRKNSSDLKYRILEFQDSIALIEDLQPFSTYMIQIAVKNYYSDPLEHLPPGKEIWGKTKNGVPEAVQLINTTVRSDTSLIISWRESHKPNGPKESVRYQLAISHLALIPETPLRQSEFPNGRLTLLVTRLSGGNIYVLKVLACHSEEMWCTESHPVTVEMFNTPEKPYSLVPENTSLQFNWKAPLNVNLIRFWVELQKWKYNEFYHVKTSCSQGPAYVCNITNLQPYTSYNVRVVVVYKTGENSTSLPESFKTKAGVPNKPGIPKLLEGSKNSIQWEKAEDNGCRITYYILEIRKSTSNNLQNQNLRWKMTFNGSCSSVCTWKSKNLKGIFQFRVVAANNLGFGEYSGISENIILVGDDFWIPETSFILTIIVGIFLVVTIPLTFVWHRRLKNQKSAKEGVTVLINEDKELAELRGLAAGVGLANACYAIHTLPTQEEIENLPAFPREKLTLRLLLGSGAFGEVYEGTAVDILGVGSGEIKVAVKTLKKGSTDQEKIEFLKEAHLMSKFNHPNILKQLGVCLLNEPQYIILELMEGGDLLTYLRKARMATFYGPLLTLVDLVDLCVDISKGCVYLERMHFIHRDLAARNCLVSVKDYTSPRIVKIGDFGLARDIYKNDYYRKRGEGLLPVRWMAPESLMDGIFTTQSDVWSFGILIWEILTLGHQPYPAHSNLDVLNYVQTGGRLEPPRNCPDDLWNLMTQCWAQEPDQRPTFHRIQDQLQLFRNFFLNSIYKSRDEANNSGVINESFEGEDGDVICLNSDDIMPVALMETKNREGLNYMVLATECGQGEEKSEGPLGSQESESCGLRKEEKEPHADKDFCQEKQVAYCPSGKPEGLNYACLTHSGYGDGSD
Text: (§1) Creation of CD74-ROS1 and EML4-ALK Ba/F3 Stable Cell Lines and Cell Proliferation Assays.
(§2) The CD74-ROS1 wild-type gene and EML4-ALK wild-type gene (variant 1) were synthesized at GenScript and cloned into pCDH-CMV-MCS-EF1-Puro plasmid (System Biosciences, Inc). Ba/F3-CD74-ROS1 and Ba/F3-EML4-ALK wild type cell lines were generated by infecting Ba/F3 cells with lentivirus containing CD74-ROS1 wide-type and EML4-ALK wild type. Stable cell lines were selected by puromycin treatment, followed by IL-3 withdrawal. 3000 cells were seeded in 384 well white plate overnight before compound treatment. Cell proliferation was measured using CellTiter-Glo luciferase-based ATP detection assay (Promega) following the manufactures's protocol after 72 hours of various concentration of compound incubation. IC50 determinations were performed using GraphPad Prism software (GraphPad, Inc., San Diego, Calif.).

[1] = test system: essential thrombocythemia cell line SET-2 cells (harboring endogenous JAK2 point mutation); assay: Cell proliferation assay, SET-2 cells (CellTiter-Glo); conditions: Homo sapiens, 72 hours incubation, read-out: Cell Proliferation IC50 SET2
Experimental: (§3) Cell Proliferation Assays.
(§4) Colorectal cell lines KM 12 (harboring endogenous TPM3-TRKA fusion gene) cells were cultured in DMEM medium, supplemented with 10% fetal bovine serum and 100 U/mL of penicillin/streptomycin. 5000 cells were seeded in 384 well white plate for 24 hours before compounds treatment. Cell proliferation was measured using CellTiter-Glo luciferase-based ATP detection assay (Promega) following the manufactures's protocol after 72 hours incubation. IC50 determinations were performed using GraphPad Prism software (GraphPad, Inc., San Diego, Calif.). Alternatively, essential thrombocythemia cell line SET-2 cells (harboring endogenous JAK2 V618F point mutation) or T cell lymphoma Karpas-299 cell line (harboring endogenous NPM-ALK fusion gene) were cultured in RPMI medium, supplemented with 10% fetal bovine serum and 100 U/mL of penicillin/streptomycin. 5000 cells were seeded in 384 well white plate for 24 hours before compounds treatment. Cell proliferation was measured using CellTiter-Glo luciferase-based ATP detection assay (Promega) following the manufactures's protocol after 72 hours incubation. IC50 determinations were performed using GraphPad Prism software (GraphPad, Inc., San Diego, Calif.).

[2] = test system: T cell lymphoma Karpas-299 cell line (harboring endogenous NPM-ALK fusion gene); assay: Cell proliferation assay, Karpas-299 cells (CellTiter-Glo); conditions: Homo sapiens, 72 hours incubation
Experimental: as §3, §4

EML4-ALK Ba/F3 = target: T2, EML4-ALK Ba/F3 (Homo sapiens, UniProt Q9UM73); assay: Cell proliferation assay, EML4-ALK Ba/F3 stable cell line (CellTiter-Glo); conditions: Ba/F3-EML4-ALK wild type (variant 1) cells, 72 hours compound incubation; read-out: Cell Proliferation IC50 EML4-ALK Ba/F3
T2 construct: fused on or other part: Q9HC35 (Echinoderm microtubule-associated protein-like 4)
T2 sequence (Q9UM73 whole entry, change not shown, the tested form may be a part): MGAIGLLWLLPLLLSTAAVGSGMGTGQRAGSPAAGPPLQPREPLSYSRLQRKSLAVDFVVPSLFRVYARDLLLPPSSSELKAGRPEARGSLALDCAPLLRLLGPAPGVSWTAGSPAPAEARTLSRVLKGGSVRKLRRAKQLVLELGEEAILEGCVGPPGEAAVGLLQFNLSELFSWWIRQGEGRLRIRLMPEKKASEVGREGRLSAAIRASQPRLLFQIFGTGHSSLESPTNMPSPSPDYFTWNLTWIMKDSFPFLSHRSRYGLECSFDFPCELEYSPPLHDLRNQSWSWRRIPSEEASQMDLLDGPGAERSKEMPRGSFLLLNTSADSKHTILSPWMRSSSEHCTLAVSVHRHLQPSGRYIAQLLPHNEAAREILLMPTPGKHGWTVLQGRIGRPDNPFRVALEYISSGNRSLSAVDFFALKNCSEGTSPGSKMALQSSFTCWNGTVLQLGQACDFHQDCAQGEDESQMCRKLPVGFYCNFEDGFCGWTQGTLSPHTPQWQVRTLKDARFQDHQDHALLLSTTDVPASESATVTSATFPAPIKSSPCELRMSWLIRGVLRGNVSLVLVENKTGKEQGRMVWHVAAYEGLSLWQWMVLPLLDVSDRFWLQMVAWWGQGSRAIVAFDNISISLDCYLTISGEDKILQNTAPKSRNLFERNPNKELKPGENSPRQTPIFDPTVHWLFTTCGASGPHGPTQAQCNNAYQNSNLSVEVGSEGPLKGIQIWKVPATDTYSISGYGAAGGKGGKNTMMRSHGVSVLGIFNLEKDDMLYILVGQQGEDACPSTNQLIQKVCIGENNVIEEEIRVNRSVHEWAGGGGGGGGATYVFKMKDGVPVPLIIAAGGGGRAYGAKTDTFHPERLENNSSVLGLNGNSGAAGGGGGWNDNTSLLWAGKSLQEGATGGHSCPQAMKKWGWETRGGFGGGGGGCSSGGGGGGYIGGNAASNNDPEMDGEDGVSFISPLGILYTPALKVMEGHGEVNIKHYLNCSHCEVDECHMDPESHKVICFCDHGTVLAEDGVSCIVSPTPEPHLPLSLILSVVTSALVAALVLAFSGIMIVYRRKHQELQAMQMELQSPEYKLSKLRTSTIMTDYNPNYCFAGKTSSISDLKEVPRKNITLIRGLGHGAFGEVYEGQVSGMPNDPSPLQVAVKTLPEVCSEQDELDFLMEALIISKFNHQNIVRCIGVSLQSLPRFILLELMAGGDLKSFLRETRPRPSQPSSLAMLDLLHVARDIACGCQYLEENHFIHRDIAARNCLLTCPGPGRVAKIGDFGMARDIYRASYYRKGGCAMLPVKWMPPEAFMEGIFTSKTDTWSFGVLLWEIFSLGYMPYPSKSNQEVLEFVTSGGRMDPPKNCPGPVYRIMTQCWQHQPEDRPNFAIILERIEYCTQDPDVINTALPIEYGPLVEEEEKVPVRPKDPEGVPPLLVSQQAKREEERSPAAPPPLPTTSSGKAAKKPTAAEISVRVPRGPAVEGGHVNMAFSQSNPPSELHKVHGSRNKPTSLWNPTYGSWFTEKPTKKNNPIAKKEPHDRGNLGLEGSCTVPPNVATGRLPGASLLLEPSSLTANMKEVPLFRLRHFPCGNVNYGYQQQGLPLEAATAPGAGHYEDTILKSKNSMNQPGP
Text: as §1, §2

[3] = test system: Colorectal cell lines KM 12 (harboring endogenous TPM3-TRKA fusion gene); assay: Cell proliferation assay, KM12 cells (CellTiter-Glo); conditions: Homo sapiens, 72 hours incubation
Experimental: as §3
as §4, with “Alternatively, essential thrombocythemia cell line SET-2 cells (harboring endogenous JAK2 V618F point mutation) or T cell lymphoma Karpas-299 cell line (harboring endogenous NPM-ALK fusion gene) were cultured in RPMI medium, supplemented with 10% fetal bovine serum and 100 U/mL of penicillin/streptomycin.” left out

CC[C@H]1Nc2ccn3ncc(c3n2)C(=O)NCCOc2ccc(F)cc21 [Compound 19, (13R)-13-ethyl-11-fluoro-6,7,13,14-tetrahydro-1,15-ethenopyrazolo[4,3-f][1,4,8,10]benzoxatriazacyclotridecin-4(5H)-one]
GI50 (CD74-ROS1 Ba/F3): 0.5 nM
IC50 [1]: 294 nM
IC50 [2]: 193 nM
GI50 (EML4-ALK Ba/F3): 406 nM
IC50 [3]: 0.6 nM

O=C1NCCOc2ccc(F)cc2[C@@H](CCO)Nc2ccn3ncc1c3n2 [Compound 22, (13R)-11-fluoro-13-(2-hydroxyethyl)-6,7,13,14-tetrahydro-1,15-ethenopyrazolo[4,3-f][1,4,8,10]benzoxatriazacyclotridecin-4(5H)-one]
GI50 (CD74-ROS1 Ba/F3): 1000 nM
IC50 [1]: 854 nM
IC50 [2]: 352 nM
GI50 (EML4-ALK Ba/F3): > 10000 nM
IC50 [3]: 22 nM

C[C@H]1Nc2ccn3ncc(c3n2)C(=O)NC[C@H](C(F)F)Oc2ccc(F)cc21 [Compound 18, (7R,13R)-7-(difluoromethyl)-11-fluoro-13-methyl-6,7,13,14-tetrahydro-1,15-ethenopyrazolo[4,3-f][1,4,8,10]benzoxatriazacyclotridecin-4(5H)-one]
GI50 (CD74-ROS1 Ba/F3): 0.2 nM
IC50 [1]: 98.6 nM
IC50 [2]: 24.7 nM
GI50 (EML4-ALK Ba/F3): 28.4 nM
IC50 [3]: 0.2 nM

CC[C@@H]1CNC(=O)c2cnn3ccc(nc23)N[C@H](C)c2cc(F)ccc2O1 [Compound 1, (7R,13R)-7-ethyl-11-fluoro-13-methyl-6,7,13,14-tetrahydro-1,15-ethenopyrazolo[4,3-f][1,4,8,10]benzoxatriazacyclotridecin-4(5H)-one]
GI50 (CD74-ROS1 Ba/F3): 0.2 nM
IC50 [1]: 67.6 nM
IC50 [2]: 16.7 nM
GI50 (EML4-ALK Ba/F3): 13.4 nM
IC50 [3]: 0.2 nM

CC[C@@H]1COc2ccc(F)cc2[C@@H](C)Nc2ccn3ncc(c3n2)C(=O)N1 [Compound 2, (6R,13R)-6-ethyl-11-fluoro-13-methyl-6,7,13,14-tetrahydro-1,15-ethenopyrazolo[4,3-f][1,4,8,10]benzoxatriazacyclotridecin-4(5H)-one]
GI50 (CD74-ROS1 Ba/F3): 0.7 nM
IC50 [1]: 956 nM
IC50 [2]: 354 nM
GI50 (EML4-ALK Ba/F3): 681 nM
IC50 [3]: 6 nM

CC(C)(O)[C@H]1Nc2ccn3ncc(c3n2)C(=O)NCCOc2ccc(F)cc21 [Compound 24, (13S)-11-fluoro-13-(2-hydroxypropan-2-yl)-6,7,13,14-tetrahydro-1,15-ethenopyrazolo[4,3-f][1,4,8,10]benzoxatriazacyclotridecin-4(5H)-one]
GI50 (CD74-ROS1 Ba/F3): 8 nM
IC50 [1]: 1320 nM
IC50 [2]: 264 nM
GI50 (EML4-ALK Ba/F3): 475 nM
IC50 [3]: 5 nM

CC[C@H]1CNC(=O)c2cnn3ccc(nc23)N[C@H](CC)c2cc(F)ccc2O1 [Compound 20, (7S,13R)-7,13-diethyl-11-fluoro-6,7,13,14-tetrahydro-1,15-ethenopyrazolo[4,3-f][1,4,8,10]benzoxatriazacyclotridecin-4(5H)-one]
GI50 (CD74-ROS1 Ba/F3): 0.2 nM
IC50 [1]: 404 nM
IC50 [2]: 144 nM
GI50 (EML4-ALK Ba/F3): 151 nM
IC50 [3]: 3 nM

C[C@H]1Nc2ccn3ncc(c3n2)C(=O)N[C@H](C(F)F)COc2ccc(F)cc21 [Compound 17, (6S,13R)-6-(difluoromethyl)-11-fluoro-13-methyl-6,7,13,14-tetrahydro-1,15-ethenopyrazolo[4,3-f][1,4,8,10]benzoxatriazacyclotridecin-4(5H)-one]
GI50 (CD74-ROS1 Ba/F3): 3 nM
IC50 [1]: 5 nM
IC50 [2]: 297 nM
GI50 (EML4-ALK Ba/F3): 2690 nM
IC50 [3]: 0.2 nM

C[C@H]1Nc2ccn3ncc(c3n2)C(=O)NC[C@H](CO)Oc2ccc(F)cc21 [Compound 5, (7R,13R)-11-fluoro-7-(hydroxymethyl)-13-methyl-6,7,13,14-tetrahydro-1,15-ethenopyrazolo[4,3-f][1,4,8,10]benzoxatriazacyclotridecin-4(5H)-one]
GI50 (CD74-ROS1 Ba/F3): 27.9 nM
IC50 [1]: 852 nM
IC50 [2]: 794 nM
GI50 (EML4-ALK Ba/F3): 2030 nM
IC50 [3]: 16.5 nM

CNC(=O)[C@H]1CNC(=O)c2cnn3ccc(nc23)N[C@H](C)c2cc(F)ccc2O1 [Compound 15, (7R,13R)-7-(N-methylcarboxamide)-11-fluoro-13-methyl-6,7,13,14-tetrahydro-1,15-ethenopyrazolo[4,3-f][1,4,8,10]benzoxatriazacyclotridecin-4(5H)-one]
GI50 (CD74-ROS1 Ba/F3): 1000 nM
IC50 [1]: 4790 nM
IC50 [2]: > 10000 nM
GI50 (EML4-ALK Ba/F3): > 10000 nM
IC50 [3]: 160 nM

C[C@H]1Nc2ccn3ncc(c3n2)C(=O)NC[C@H](CN(C)C)Oc2ccc(F)cc21 [Compound 12, (7R,13R)-7-[(dimethylamino)methyl]-11-fluoro-13-methyl-6,7,13,14-tetrahydro-1,15-ethenopyrazolo[4,3-f][1,4,8,10]benzoxatriazacyclotridecin-4(5H)-one]
GI50 (CD74-ROS1 Ba/F3): 130 nM
IC50 [1]: 1960 nM
IC50 [2]: 2270 nM
GI50 (EML4-ALK Ba/F3): 5100 nM
IC50 [3]: 42 nM

C[C@H]1Nc2ccn3ncc(c3n2)C(=O)N[C@H](CO)COc2ccc(F)cc21 [Compound 8, (6R,13R)-11-fluoro-6-(hydroxymethyl)-13-methyl-6,7,13,14-tetrahydro-1,15-ethenopyrazolo[4,3-f][1,4,8,10]benzoxatriazacyclotridecin-4(5H)-one]
GI50 (CD74-ROS1 Ba/F3): 34.7 nM
IC50 [1]: 406 nM
IC50 [2]: 1500 nM
GI50 (EML4-ALK Ba/F3): 2130 nM
IC50 [3]: 17 nM

C[C@H]1Nc2ccn3ncc(c3n2)C(=O)N[C@@H](CO)COc2ccc(F)cc21 [Compound 6, (6S,13R)-11-fluoro-6-(hydroxymethyl)-13-methyl-6,7,13,14-tetrahydro-1,15-ethenopyrazolo[4,3-f][1,4,8,10]benzoxatriazacyclotridecin-4(5H)-one]
GI50 (CD74-ROS1 Ba/F3): 2.8 nM
IC50 [1]: 164 nM
IC50 [2]: 65 nM
GI50 (EML4-ALK Ba/F3): 116 nM
IC50 [3]: 0.5 nM

C[C@H]1Nc2ccn3ncc(c3n2)C(=O)N[C@@H](CN(C)C)COc2ccc(F)cc21 [Compound 13, (6S,13R)-6-[(dimethylamino)methyl]-11-fluoro-13-methyl-6,7,13,14-tetrahydro-1,15-ethenopyrazolo[4,3-f][1,4,8,10]benzoxatriazacyclotridecin-4(5H)-one]
GI50 (CD74-ROS1 Ba/F3): 112 nM
IC50 [1]: 4030 nM
IC50 [2]: 3220 nM
GI50 (EML4-ALK Ba/F3): 1480 nM
IC50 [3]: 69 nM

C[C@H]1Nc2ccn3ncc(c3n2)C(=O)N[C@@H](C(F)F)COc2ccc(F)cc21 [Compound 16, (6R,13R)-6-(difluoromethyl)-11-fluoro-13-methyl-6,7,13,14-tetrahydro-1,15-ethenopyrazolo[4,3-f][1,4,8,10]benzoxatriazacyclotridecin-4(5H)-one]
GI50 (CD74-ROS1 Ba/F3): 112 nM
IC50 [1]: 665 nM
IC50 [2]: 470 nM
GI50 (EML4-ALK Ba/F3): 1910 nM
IC50 [3]: 0.4 nM

CC[C@H]1COc2ccc(F)cc2[C@@H](CC)Nc2ccn3ncc(c3n2)C(=O)N1 [Compound 21, (6S,13R)-6,13-diethyl-11-fluoro-6,7,13,14-tetrahydro-1,15-ethenopyrazolo[4,3-f][1,4,8,10]benzoxatriazacyclotridecin-4(5H)-one]
GI50 (CD74-ROS1 Ba/F3): 45.2 nM
IC50 [1]: 1130 nM
IC50 [2]: 8030 nM
GI50 (EML4-ALK Ba/F3): 6790 nM
IC50 [3]: 3 nM

C[C@H]1Nc2ccn3ncc(c3n2)C(=O)NC[C@@H](CF)Oc2ccc(F)cc21 [Compound 10, (7S,13R)-11-fluoro-7-(fluoromethyl)-13-methyl-6,7,13,14-tetrahydro-1,15-ethenopyrazolo[4,3-f][1,4,8,10]benzoxatriazacyclotridecin-4(5H)-one]
GI50 (CD74-ROS1 Ba/F3): 0.2 nM
IC50 [1]: 57 nM
IC50 [2]: 80 nM
GI50 (EML4-ALK Ba/F3): 96.3 nM
IC50 [3]: 1.4 nM
